Structures are written as SMILES. A value given as a limit tells only on which side of the number the result lay.

In this experiment the target is T1, Human TREX1 enzyme (amino acids 1-242) (Homo sapiens, UniProt Q9NSU2).
T1 construct: Human TREX1 enzyme (amino acids 1-242)
T1 sequence (Q9NSU2 1-242): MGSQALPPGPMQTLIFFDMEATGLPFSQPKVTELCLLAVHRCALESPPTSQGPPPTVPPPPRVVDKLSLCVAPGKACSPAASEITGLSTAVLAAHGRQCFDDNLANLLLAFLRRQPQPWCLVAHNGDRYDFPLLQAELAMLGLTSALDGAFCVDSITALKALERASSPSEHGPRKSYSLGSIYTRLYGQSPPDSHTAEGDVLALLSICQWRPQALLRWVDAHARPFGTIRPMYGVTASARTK
Description: Human TREX1 enzymatic assay with dsDNA native oligonucleotide (Picogreen fluorescence). The conditions noted are these: 2 mM dithiothreitol in assay buffer; 50 nM dsDNA oligonucleotide; 30 min preincubation at 25° C.; read-out: TREX1/Human + DTT IC50 AVG. It counts as biochemical. The method in brief:
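Remaining dsDNA quantified by Picogreen fluorescence after EDTA quench, with no-enzyme and DMSO wells as controls. Reactions used 50 nM annealed oligonucleotide for 5–15 min at 25 °C, after a 30 min compound–enzyme preincubation (0.8–0.16 nM TREX1; 2% DMSO; pH 7.7 Tris, 5 mM MgCl2).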

In the case of `COc1cc(-c2nc3ccc(C(=O)Nc4cccnc4)cc3n2C2(C)COC2)c(F)c(O)c1O` [Example 250, 2-(2-fluoro-3,4-dihydroxy-5-methoxyphenyl)-1-(3-methyloxetan-3-yl)-N-(pyridin-3-yl)-1H-1,3-benzodiazole-6-carboxamide], the IC50 is at most 0.1 µM.

In the case of `COc1cc(-c2nc3ccc(-c4ncco4)cc3n2C2(C)COC2)c(F)c(O)c1O` [Example 296, 3-fluoro-6-methoxy-4-(1-(3-methyloxetan-3-yl)-6-(oxazol-2-yl)-1H-benzo[d]imidazol-2-yl)benzene-1,2-diol], the IC50 was at most 0.1 µM.

Regarding `COc1cc(-c2nc3ccc(C(=O)NC4CCNCC4)cc3n2C2(C)COC2)c(F)c(O)c1O` [Example 255, 2-(2-fluoro-3,4-dihydroxy-5-methoxyphenyl)-1-(3-methyloxetan-3-yl)-N-(piperidin-4-yl)-1H-benzo[d]imidazole-6-carboxamide], the IC50 was in the range of 0.1 to 1 µM.

Turning to `COc1cc(-c2nc3cc(N4CCOCC4)ccc3[nH]2)cc(C(=O)O)c1O` [Example 151, 2-hydroxy-3-methoxy-5-(5-morpholino-1H-benzo[d]imidazol-2-yl)benzoic acid], the IC50 is 10 to 100 µM.

With `COc1cc(-c2nc3cc(N4CCOCC4=O)ccc3n2C2(C)COC2)c(F)c(O)c1O` [Example 275, 4-(2-(2-fluoro-3,4-dihydroxy-5-methoxyphenyl)-1-(3-methyloxetan-3-yl)-1H-benzo[d]imidazol-5-yl)morpholin-3-one], the IC50 lay in the range of 0.1 to 1 µM.

`COc1cc(-c2nc3cc(N4CCCC4=O)ccc3n2C2COC2)c(F)c(O)c1O` [Example 191, 1-(2-(2-fluoro-3,4-dihydroxy-5-methoxyphenyl)-1-(oxetan-3-yl)-1H-benzo[d]imidazol-5-yl)pyrrolidin-2-one]: the IC50 lay in the range of 10 to 100 µM.

As to `COC(=O)c1cc(-c2nc3cc(N4CCC4)ccc3[nH]2)cc(OC)c1O` [Example 196, methyl 5˜(5-(azetidin-1-yl)-1H-benzo[d]imidazol-2-yl)-2-hydroxy-3-methoxybenzoate], the IC50 was above 100 µM.

Take `COc1cc(-c2nc3cc(N4CCN(C(=O)c5ccncc5)CC4)ccc3[nH]2)cc(O)c1O` [Example 96, (4-(2-(3,4-dihydroxy-5-methoxyphenyl)-1H-benzo[d]imidazol-5-yl)piperazin-1-yl)(pyridin-4-yl)methanone]: the IC50 lay within 10 to 100 µM.

As to `COc1cc(-c2nc3cc(N4CCC4)ccc3n2C2CCOC2)cc(C(=O)O)c1O` (stereo not shown) [Example 28, 5-(5-(azetidin-1-yl)-1-(tetrahydrofuran-3-yl)-1H-benzo[d]imidazol-2-yl)-2-hydroxy-3-methoxybenzoic acid], the IC50 fell in the range of 10 to 100 µM.

As for `COc1cc(-c2nc3cc(N4CCN(C(C)C)CC4)ccc3[nH]2)cc(O)c1O` [Example 72, 5-(5-(4-isopropylpiperazin-1-yl)-1H-benzo[d]imidazol-2-yl)-3-methoxybenzene-1,2-diol], the IC50 is 10 to 100 µM.

Take `COc1cc(-c2nc3cc(N4CCN(c5ccncc5)CC4)ccc3[nH]2)cc(O)c1O` [Example 131, 3-methoxy-5-(5-(4-(pyridin-4-yl)piperazin-1-yl)-1H-benzo[d]imidazol-2-yl)benzene-1,2-diol]: the IC50 fell in the range of 10 to 100 µM.

Regarding `COc1cc(-c2nc3cc(N4CCN(C(=O)c5ccccc5)CC4)ccc3[nH]2)c(C(F)(F)F)c(O)c1O` [Example 30, (4-(2-(3,4-dihydroxy-5-methoxy-2-(trifluoromethyl)phenyl)-1H-benzo[d]imidazol-5-yl)piperazin-1-yl)(phenyl)methanone], the IC50 was in the range of 10 to 100 µM.

Consider `COc1cc(-c2nc3ccc(C(=O)N4CCC4)cc3n2C2(C)COC2)c(F)c(O)c1O` [Example 177, 4-[6-(azetidine-1-carbonyl)-1-(3-methyloxetan-3-yl)-1H-1,3-benzodiazol-2-yl]-3-fluoro-6-methoxybenzene-1,2-diol], for which the IC50 lay in the range of 0.1 to 1 µM.

For `COc1cc(-c2nc3cc(NC(C)=O)ncc3n2C2(C)COC2)c(F)c(O)c1O` [Example 237, N-(2-(2-fluoro-3,4-dihydroxy-5-methoxyphenyl)-3-(3-methyloxetan-3-yl)-3H-imidazo[4,5-c]pyridin-6-yl)acetamide], the IC50 was at most 0.1 µM.

Take `COc1cc(-c2nc3ccccc3[nH]2)cc(O)c1O` [Example 9, 5-(1H-benzo[d]imidazol-2-yl)-3-methoxybenzene-1,2-diol]: the IC50 was above 100 µM.

Turning to `COc1cc(-c2nc3cc(N)ccc3n2C2CCC2)c(C)c(O)c1O` [Example 235, 4-(5-amino-1-cyclobutyl-1H-benzo[d]imidazol-2-yl)-6-methoxy-3-methylbenzene-1,2-diol], the IC50 fell in the range of 0.1 to 1 µM.

`CCc1cc2nc(-c3cc(OC)c(O)c(O)c3F)n(C3(C)COC3)c2cn1` [Example 218, 4-[6-ethyl-3-(3-methyloxetan-3-yl)-3H-imidazo[4,5-c]pyridin-2-yl]-3-fluoro-6-methoxybenzene-1,2-diol]: the IC50 was at most 0.1 µM.

With `COc1cc(-c2nc3cc(N4CC5(CN(C(C)=O)C5)C4)ccc3[nH]2)cc(O)c1O` [Example 132, 1-(6-(2-(3,4-dihydroxy-5-methoxyphenyl)-1H-benzo[d]imidazol-5-yl)-2,6-diazaspiro[3.3]heptan-2-yl)ethan-1-one], the IC50 was 10 to 100 µM.

Consider `COc1cc(-c2nc3cc(N4CC(OC)C4)ccc3[nH]2)cc(O)c1O` [Example 144, 3-methoxy-5-(5-(3-methoxyazetidin-1-yl)-1H-benzo[d]imidazol-2-yl)benzene-1,2-diol], for which the IC50 lay within 10 to 100 µM.

For `COc1ccc2c(c1)nc(-c1cc(OC)c(O)c(O)c1C)n2C1CCC1` [Example 176, 4-(1-cyclobutyl-5-methoxy-1H-1,3-benzodiazol-2-yl)-6-methoxy-3-methylbenzene-1,2-diol], the IC50 was 0.1 to 1 µM.

With `COc1cc(-c2nc3cc(O)ccc3[nH]2)c(C)c(O)c1O` [Example 183, 4-(5-hydroxy-1H-1,3-benzodiazol-2-yl)-6-methoxy-3-methylbenzene-1,2-diol], the IC50 fell in the range of 10 to 100 µM.

Regarding `COc1cc(-c2nc3cc(N4CCC(N(C)C)CC4)ccc3[nH]2)cc(O)c1O` [Example 74, 5-(5-(4-(dimethylamino)piperidin-1-yl)-1H-benzo[d]imidazol-2-yl)-3-methoxybenzene-1,2-diol], the IC50 lay within 10 to 100 µM.

Take `COc1cc(-c2nc3ccc(CNc4ccccc4)cc3n2C2(C)COC2)c(F)c(O)c1O` [Example 236, 3-fluoro-6-methoxy-4-(1-(3-methyloxetan-3-yl)-6-((phenylamino)methyl)-1H-benzo[d]imidazol-2-yl)benzene-1,2-diol]: the IC50 lay in the range of 0.1 to 1 µM.

In the case of `COc1cc(-c2nc3cc(N4CCN(C(=O)CCCCN)CC4)ccc3n2COCC[Si](C)(C)C)cc(O)c1O` [Example 128, 5-amino-1-(4-(2-(3,4-dihydroxy-5-methoxyphenyl)-1-((2-(trimethylsilyl)ethoxy)methyl)-1H-benzo[d]imidazol-5-yl)piperazin-1-yl)pentan-1-one], the IC50 lay within 10 to 100 µM.

Turning to `COc1cc(-c2nc3cc(N4CC5(CNC5)C4)ccc3[nH]2)cc(O)c1O` [Example 142, 5-(5-(2,6-diazaspiro[3.3]heptan-2-yl)-1H-benzo[d]imidazol-2-yl)-3-methoxybenzene-1,2-diol], the IC50 was above 100 µM.

Take `O=C(O)c1cc(-c2nc3cc(N4CCOCC4)ccc3[nH]2)ccc1O` [Example 140, 2-hydroxy-5-(5-morpholino-1H-benzo[d]imidazol-2-yl)benzoic acid]: the IC50 lay in the range of 10 to 100 µM.

For `COc1cc(-c2nc3cnccc3n2C)cc(O)c1O` [Example 45, 3-methoxy-5-(1-methyl-1H-imidazo[4,5-c]pyridin-2-yl)benzene-1,2-diol], the IC50 was above 100 µM.

As for `CNCc1ccc2nc(-c3cc(OC)c(O)c(O)c3F)n(C3(C)COC3)c2c1` [Example 186, 3-fluoro-6-methoxy-4-(6-((methylamino)methyl)-1-(3-methyloxetan-3-yl)-1H-benzo[d]imidazol-2-yl)benzene-1,2-diol], the IC50 lay within 1 to 10 µM.

On to `COCCn1c(-c2cc(O)c(O)c(OC)c2)nc2ccccc21` [Example 15, 3-methoxy-5-(1-(2-methoxyethyl)-1H-benzo[d]imidazol-2-yl)benzene-1,2-diol], for which the IC50 was above 100 µM.

With `COc1cc(-c2nc3ccncc3n2C)cc(O)c1O` [Example 44, 3-methoxy-5-(3-methyl-3H-imidazo[4,5-c]pyridin-2-yl)benzene-1,2-diol], the IC50 is above 100 µM.

Take `COc1cc(-c2nc3nc(N4CCOCC4)ccc3[nH]2)cc(O)c1O` [Example 94, 3-methoxy-5-(5-morpholino-1H-imidazo[4,5-b]pyridin-2-yl)benzene-1,2-diol]: the IC50 was 10 to 100 µM.

With `COc1c(C)c(-c2nc3ccccc3[nH]2)cc(O)c1O` [Example 16, 5-(1H-benzo[d]imidazol-2-yl)-3-methoxy-4-methylbenzene-1,2-diol], the IC50 is above 100 µM.

For the compound `COc1cc(-c2nc3ccc(C(=O)Nc4ccncc4)cc3n2C2(C)COC2)c(F)c(O)c1O` [Example 248, 2-(2-fluoro-3,4-dihydroxy-5-methoxyphenyl)-1-(3-methyloxetan-3-yl)-N-(pyridin-4-yl)-1H-1,3-benzodiazole-6-carboxamide], the IC50 was at most 0.1 µM.

Consider `COc1cc(-c2nc3cc(C(N)=O)ncc3n2C2(C)COC2)c(F)c(O)c1O` [Example 219, 2-(2-fluoro-3,4-dihydroxy-5-methoxyphenyl)-3-(3-methyloxetan-3-yl)-3H-imidazo[4,5-c]pyridine-6-carboxamide], for which the IC50 lay within 0.1 to 1 µM.
